# Read-outs that look alike come from different tables or passages of the source.
# Key:
# [1] = molecular target: T1, full-length beta-Catenin (Uniprot ID P35222) (Homo sapiens, UniProt P35222); experiment: Fluorescence polarization IC50 (beta-catenin / 5FAM-TCF4 10-53 competition); assay type: binding
# T1 construct: 10 nM full-length beta-Catenin (Uniprot ID P35222)
# T1 sequence (P35222 1-781): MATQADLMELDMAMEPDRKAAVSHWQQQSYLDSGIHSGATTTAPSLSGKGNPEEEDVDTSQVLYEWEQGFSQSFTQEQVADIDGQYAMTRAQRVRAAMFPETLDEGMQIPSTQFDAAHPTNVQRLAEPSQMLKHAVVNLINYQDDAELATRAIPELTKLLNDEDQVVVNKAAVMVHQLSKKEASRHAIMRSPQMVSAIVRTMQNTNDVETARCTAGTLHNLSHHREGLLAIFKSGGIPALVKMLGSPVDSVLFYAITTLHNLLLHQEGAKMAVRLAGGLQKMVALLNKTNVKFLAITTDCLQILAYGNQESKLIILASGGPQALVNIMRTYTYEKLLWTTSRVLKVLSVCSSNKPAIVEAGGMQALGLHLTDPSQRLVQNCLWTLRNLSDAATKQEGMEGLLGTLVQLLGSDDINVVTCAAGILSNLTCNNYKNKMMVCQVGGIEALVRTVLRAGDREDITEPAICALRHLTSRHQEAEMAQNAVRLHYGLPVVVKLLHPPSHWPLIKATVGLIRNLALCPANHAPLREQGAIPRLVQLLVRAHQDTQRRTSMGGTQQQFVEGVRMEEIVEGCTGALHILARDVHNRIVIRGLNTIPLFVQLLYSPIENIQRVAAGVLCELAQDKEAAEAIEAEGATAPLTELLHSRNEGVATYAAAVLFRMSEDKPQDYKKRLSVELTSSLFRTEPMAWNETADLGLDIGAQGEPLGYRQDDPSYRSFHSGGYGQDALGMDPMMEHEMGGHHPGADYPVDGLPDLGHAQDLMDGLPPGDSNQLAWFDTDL
# CHI Log D procedure = assay type: physicochemical; settings: for CHI Log D: pH 7.4; for chromatographic logD: pH 7.4, CHI Log D
# [2] = fluorescence polarization, read-out: beta-Catenin FP IC50
Structure (SMILES),"IC50 [1, 2] [nM]",IC50 ([1]; read-out: FP EC50) [nM],CHI Log D (CHI Log D procedure),chromatographic logD (CHI Log D procedure)
"CCCC[C@@H]1NC(=O)[C@H](C)NC(=O)[C@H](CCC(=O)O)NC(=O)[C@H](CC(=O)O)NC(=O)C2(CCCC=CCCCCCC[C@@](C)(C(=O)N[C@@H](Cc3ccccc3)C(=O)N[C@@H](Cc3csc4ccccc34)C(=O)N[C@@H](CCC(N)=O)C(N)=O)NC(=O)[C@H](CCC(N)=O)NC(=O)[C@H](Cc3ccccc3)NC1=O)CCCC=CC[C@]1(CCCN1C(C)=O)C(=O)N[C@@H](CC(=O)O)C(=O)N[C@@H]([C@@H](C)CC)C(=O)N2 (stereo partly drawn) [I-666, Ac-PL3-Asp-Ile-B5-Asp-Glu-Ala-nLeu-Phe-Gln-S8-Phe-BztA-Gln-NH2]",626,626,2.862,
"CCCC[C@@H]1NC(=O)[C@H](C)NC(=O)[C@H](CCC(=O)O)NC(=O)[C@H](CC(=O)O)NC(=O)C2(CCCC=CCCCCCC[C@@](C)(C(=O)N[C@@H](Cc3ccccc3)C(=O)N[C@@H](Cc3csc4ccccc34)C(=O)N[C@@H](CCC(N)=O)C(N)=O)NC(=O)[C@H](CCC(N)=O)NC(=O)[C@H](Cc3ccccc3)NC1=O)CCCC=CC[C@]1(CCCN1C(C)=O)C(=O)N[C@@H](CC(=O)O)C(=O)N[C@@H]([C@@H](C)CC)C(=O)N2 (stereo partly drawn) [I-667, Ac-PL3-Asp-Ile-B5-Asp-Glu-Ala-nLeu-Phe-Gln-S8-Phe-BztA-Gln-NH2]",585,585,2.88,
"CC[C@H](C)[C@@H]1NC(=O)C[C@H](C(=O)O)NC(=O)[C@]2(CC=CCCCC3(CCCC=CCCCCCC[C@@](C)(C(=O)N[C@@H](Cc4ccccc4)C(=O)N[C@@H](Cc4csc5ccccc45)C(=O)N[C@@H](CCC(N)=O)C(N)=O)NC(=O)[C@H](CCC(N)=O)NC(=O)[C@H](Cc4ccccc4)NC(=O)[C@H](C)NC(=O)[C@H](C)NC(=O)[C@H](CCC(=O)O)NC(=O)[C@H](CC(=O)O)NC3=O)NC1=O)CCCN2C(C)=O (stereo partly drawn) [I-668, Ac-PL3-isoDAsp-Ile-B5-Asp-Glu-Ala-Ala-Phe-Gln-S8-Phe-BztA-Gln-NH2]",675,675,2.199,
"CC[C@H](C)[C@@H]1NC(=O)C[C@H](C(=O)O)NC(=O)[C@]2(CC=CCCCC3(CCCC=CCCCCCC[C@@](C)(C(=O)N[C@@H](Cc4ccccc4)C(=O)N[C@@H](Cc4csc5ccccc45)C(=O)N[C@@H](CCC(N)=O)C(N)=O)NC(=O)[C@H](CCC(N)=O)NC(=O)[C@H](Cc4ccccc4)NC(=O)[C@H](C)NC(=O)[C@H](C)NC(=O)[C@H](CCC(=O)O)NC(=O)[C@H](CC(=O)O)NC3=O)NC1=O)CCCN2C(C)=O (stereo partly drawn) [I-669, Ac-PL3-isoDAsp-Ile-B5-Asp-Glu-Ala-Ala-Phe-Gln-S8-Phe-BztA-Gln-NH2]",451,451,2.25,
"CC[C@H](C)[C@@H]1NC(=O)C[C@H](CC(=O)O)NC(=O)[C@]2(CC=CCCCC3(CCCC=CCCCCCC[C@@](C)(C(=O)N[C@@H](Cc4ccccc4)C(=O)N[C@@H](Cc4csc5ccccc45)C(=O)N[C@@H](CCC(N)=O)C(N)=O)NC(=O)[C@H](CCC(N)=O)NC(=O)[C@H](Cc4ccccc4)NC(=O)[C@H](C)NC(=O)[C@H](C)NC(=O)[C@H](CCC(=O)O)NC(=O)[C@H](CC(=O)O)NC3=O)NC1=O)CCCN2C(C)=O (stereo partly drawn) [I-671, Ac-PL3-RbGlu-Ile-B5-Asp-Glu-Ala-Ala-Phe-Gln-S8-Phe-BztA-Gln-NH2]",3140,3140,2.25,
"CC[C@H](C)[C@@H]1NC(=O)C[C@@H](CC(=O)O)NC(=O)[C@]2(CC=CCCCC3(CCCC=CCCCCCC[C@@](C)(C(=O)N[C@@H](Cc4ccccc4)C(=O)N[C@@H](Cc4csc5ccccc45)C(=O)N[C@@H](CCC(N)=O)C(N)=O)NC(=O)[C@H](CCC(N)=O)NC(=O)[C@H](Cc4ccccc4)NC(=O)[C@H](C)NC(=O)[C@H](C)NC(=O)[C@H](CCC(=O)O)NC(=O)[C@H](CC(=O)O)NC3=O)NC1=O)CCCN2C(C)=O (stereo partly drawn) [I-672, Ac-PL3-SbGlu-Ile-B5-Asp-Glu-Ala-Ala-Phe-Gln-S8-Phe-BztA-Gln-NH2]",5000,,,1.9

# Second part, the compound after the results:
"IC50 [1, 2] [nM]",IC50 ([1]; read-out: FP EC50) [nM],CHI Log D (CHI Log D procedure),chromatographic logD (CHI Log D procedure),Structure (SMILES)
5000,,,1.87,"CC[C@H](C)[C@@H]1NC(=O)[C@H](CC(=O)O)NC(=O)[C@]2(CC=CCCCC3(CCCC=CCCCCCC[C@@](C)(C(=O)N[C@@H](Cc4ccccc4)C(=O)N[C@@H](Cc4csc5ccccc45)C(=O)N[C@@H](CCC(N)=O)C(N)=O)NC(=O)[C@H](CCC(N)=O)NC(=O)[C@H](Cc4ccccc4)NC(=O)[C@H](C)NC(=O)[C@H](C)NC(=O)[C@H](CCC(=O)O)NC(=O)C[C@@H](C(=O)O)NC3=O)NC1=O)CCCN2C(C)=O (stereo partly drawn) [I-673, Ac-PL3-Asp-Ile-B5-isoAsp-Glu-Ala-Ala-Phe-Gln-S8-Phe-BztA-Gln-NH2]"
5000,,,1.95,"CC[C@H](C)[C@@H]1NC(=O)[C@H](CC(=O)O)NC(=O)[C@]2(CC=CCCCC3(CCCC=CCCCCCC[C@@](C)(C(=O)N[C@@H](Cc4ccccc4)C(=O)N[C@@H](Cc4csc5ccccc45)C(=O)N[C@@H](CCC(N)=O)C(N)=O)NC(=O)[C@H](CCC(N)=O)NC(=O)[C@H](Cc4ccccc4)NC(=O)[C@H](C)NC(=O)[C@H](C)NC(=O)[C@H](CCC(=O)O)NC(=O)C[C@H](C(=O)O)NC3=O)NC1=O)CCCN2C(C)=O (stereo partly drawn) [I-674, Ac-PL3-Asp-Ile-B5-isoDAsp-Glu-Ala-Ala-Phe-Gln-S8-Phe-BztA-Gln-NH2]"
4520,,,2.13,"CC[C@H](C)[C@@H]1NC(=O)[C@H](CC(=O)O)NC(=O)[C@]2(CC=CCCCC3(CCCC=CCCCCCC[C@@](C)(C(=O)N[C@@H](Cc4ccccc4)C(=O)N[C@@H](Cc4csc5ccccc45)C(=O)N[C@@H](CCC(N)=O)C(N)=O)NC(=O)[C@H](CCC(N)=O)NC(=O)[C@H](Cc4ccccc4)NC(=O)[C@H](C)NC(=O)[C@H](C)NC(=O)[C@H](CCC(=O)O)NC(=O)C[C@H](CC(=O)O)NC3=O)NC1=O)CCCN2C(C)=O (stereo partly drawn) [I-675, Ac-PL3-Asp-Ile-B5-RbGlu-Glu-Ala-Ala-Phe-Gln-S8-Phe-BztA-Gln-NH2]"
5000,,,2.29,"CC[C@H](C)[C@@H]1NC(=O)[C@H](CC(=O)O)NC(=O)[C@]2(CC=CCCCC3(CCCC=CCCCCCC[C@@](C)(C(=O)N[C@@H](Cc4ccccc4)C(=O)N[C@@H](Cc4csc5ccccc45)C(=O)N[C@@H](CCC(N)=O)C(N)=O)NC(=O)[C@H](CCC(N)=O)NC(=O)[C@H](Cc4ccccc4)NC(=O)[C@H](C)NC(=O)[C@H](C)NC(=O)[C@H](CCC(=O)O)NC(=O)C[C@@H](CC(=O)O)NC3=O)NC1=O)CCCN2C(C)=O (stereo partly drawn) [I-676, Ac-PL3-Asp-Ile-B5-SbGlu-Glu-Ala-Ala-Phe-Gln-S8-Phe-BztA-Gln-NH2]"
5,,2.117,,"CC(=O)N1CCC[C@]12CC=CCCCC1(CCCC=CCCCOC(=O)N3CC[C@@](C(=O)N[C@@H](Cc4ccsc4)C(=O)N[C@@H](Cc4csc5ccccc45)C(=O)N[C@@H](Cc4c[nH]cn4)C(N)=O)(C3)NC(=O)[C@H](CC(N)=O)NC(=O)[C@H](Cc3ccccc3)NC(=O)[C@H](C)NC(=O)[C@H](C)NC(=O)[C@H](CC(=O)O)NC(=O)[C@H](CC(=O)O)NC1=O)NC(=O)[C@H](CC(C)(C)C)NC(=O)[C@H](CC(=O)O)NC2=O (stereo partly drawn) [I-695, Ac-PL3-Asp-Npg-B5-Asp-Asp-Ala-Ala-Phe-Asn-PyrS2-3Thi-BztA-His-NH2]"
